Results from patent US20150087722A1, “TREATMENT FOR BREAST TUMOR CELL METASTASIS” (China Medical University, priority 2012, published 2015).

How the values were obtained:
[1] = tested on: Skin Tumor Cell (A2058 cell strain); assay: MTT cell viability assay; type: cell-based; conditions: Homo sapiens
[2] = tested on: Normal Rat Macrophage Cell (RAW264.7 cell strain); assay: MTT cell viability assay; type: cell-based
[3] = tested on: ROS content in breast tumor cells MDA-MB-231; assay: intracellular reactive oxygen species method; type: cell-based, human
Experimental: In FIG. 12, the reactive oxygen species method was used to detect the effect of increased treatment doses of the compound II on the ROS content in breast tumor cells, and a photograph was taken at a 200× field under the fluorescence microscope. In the intracellular reactive oxygen species method, the cells were planted in a 24-well plate (5×10^4 cells/well). The next day after the cells were adhered to the wall, the cells were cultured in a serum free DMEM culture medium at an atmosphere of 5% CO2 in an incubator at 37° C. for 12 h. The compound II was added into the 1% FBS-DMEM culture medium, and the cells were cultured in the culture medium for 2 h. The cells were then washed with PBS. 100 ng/mL LPS was added to react with the cells, and then the cells were washed with PBS. Culture medium including 10 μM fluorescent probe (DCFH2-DA) was supplied and then the cells were cultured for 30 min at 37° C. The cells were washed with PBS for three times so as to remove the residual stain. Finally the cells were lysed using 0.25% Tritox-100. The absorbance was measured by a fluorescence spectrometer, where the excitation wavelength was set as 485±20 nm, and the […] was set as 530±25 nm.

[4] = tested on: breast tumor cells MDA-MB-231; assay: wound scratching assay (cell migration); type: cell-based, human
Experimental: Referring to FIG. 14, the wound scratching assay was performed to analysis effect of the compound II in different doses on tumor cell metastasis. In the wound scratching assay for observing cell migration, the cells MDA-MB-231 (3×10^5) were planted in a 12-well plate, and the next day the cells were washed with PBS twice. The original culture medium then was replaced by 1% FBS cell culture medium. The next day a space was scratched at the bottom of the well. The cell culture medium was removed and the cells were washed with PBS twice. 1% FBS cell culture medium and the compound II of different concentrations were added and photographs were taken after 0, 12, 24 and 36 h so as to observe migration of cells. After the reaction, the cells were fixed for 30 min using 75% ice alcohol. After the alcohol was completely volatilized, the cells were stained with Giemsa Stain. The migration number of cells was counted in three random fields (200×) under the microscope (Lin et al., 2008). […] After the breast tumor cells were treated for 0, 12, 24 and 36 h, the quantitative result of effect of the compound II on metastasis of breast tumor cells MDA-MD-231 was observed, and the data results were represented by mean±SD values, where n=3.

[5] = tested on: Her-2/neu, p-Tyrosine, PI3K and Akt in breast tumor cells MDA-MB-453; assay: western blotting of Her-2/neu-related proteins; type: cell-based, human
Experimental: The steps of western blotting include: washing cells with PBS twice at 4° C.; adding a lysis buffer and rubbing the cells by a rubbr policeman so as to lyse cells; putting the lysed cell solution into a 1.5 ml microcentrifuge tube and shaking for 1 min; centrifuging at 12000 rpm for 10 min and taking the supernatant; measuring concentration of the protein through a Bio-Rad protein assay kit; and storing the remained extracted protein solution at −70° C.; taking 100 μg protein solution and adding a SDS/protein loading buffer having the same volume, where the SDS/protein loading buffer has a concentration two times larger than the protein solution; boiling the mixture of the protein solution and the SDS/protein loading buffer at 100° C. for 10 min; cooling and loading the protein samples in each hole of gel; adjusting the voltage to 100 V and running the protein samples on the gel until the tracking dye in the sample buffer reaches the bottom of the gel; and subsequently transferring the protein from the gel using electrophoresis. A PVDF membrane was soaked in methanol until the paper was totally wet. The paper was arranged in a transfer tank placed in a 4° C. ice box, and the protein transfer was performed at a current of […] for 4 h. The PVDF membrane was then taken out, placed in a PBS blocking solution including 1% BSA and shaken for 2 h. Then the PVDF membrane was placed in a blocking solution including a primary antibody and slowly shaken at 100 rpm for 1 h at the room temperature. […] Then luminescence image equipment was used, where the PVDF was placed onto a black metal plate by a plastic pincer and the face including protein was upwards, a 1:1 mixed Chemiluminesent Substrate was added into the membrane and the exposure time depends on the fluorescence intensity of antibodies. […] FIG. 22 illustrates expression results of Her-2/neu-related proteins used for facilitating survival of tumor cells when compounds of formula (I) in different doses were added, which were detected by the western blotting. […]

IC50 [1]: 23.6 µM
SMILES: COC1=C(OC)C(=O)C(C)=C(C)C1=O [compound II]
IC50 [2]: 25.5 µM
increasing trend of reactive oxygen species ([3]; MDA-MB-231, with antioxidant NAC added at the same time): not obvious
content of reactive oxygen species ([3]; MDA-MB-231, with increasing treatment doses): increased accordingly
breast tumor cells migrated ([4]; 0.5 μM, in 12-24 h): 60-70%
migration capability of breast tumor cells ([4]; concentration above 1 μM): significantly inhibited
expression of Her-2/neu and p-Tyrosine ([5]; 40 μM): totally inhibited
expression amount of p-Tyrosine activated by Her-2/neu ([5]; 10-60 μM, with increasing concentration): significantly decreased
protein expression of PI3K and Akt ([5]; high concentration): inhibited
